Experimental data published in ChEMBL document CHEMBL1201862, “PubChem BioAssay data set” (2004).
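Values below derive from 48-hour exposures of cells grown in 96-well plates, with endpoints linearly interpolated between the two concentrations bracketing the appropriate inhibition level. GI50 marks 50% less growth.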 The source made the active and inactive calls. Rule as the data show it: active = GI50 up to about 1.1 µM and inactive = higher.

Tests used:
Assay in all cases: NCI anticancer screen, dose series, 48 h
786-0 = test system: 786-0
A498 = test system: A498
A549 = test system: A549
ACHN = test system: ACHN
BT-549 = test system: BT-549
CAKI-1 = test system: CAKI-1
CCRF-CEM = test system: CCRF-CEM
COLO 205 = test system: COLO 205
DU-145 = test system: DU-145
EKVX = test system: EKVX
HCC 2998 = test system: HCC 2998
HCT-116 = test system: HCT-116
HCT-15 = test system: HCT-15
HL-60 = test system: HL-60
HOP-62 = test system: HOP-62
HOP-92 = test system: HOP-92
HT-29 = test system: HT-29
Hs-578T = test system: Hs-578T
IGROV-1 = test system: IGROV-1
K562 = test system: K562
KM12 = test system: KM12
LOX IMVI = test system: LOX IMVI
M14 = test system: M14
MCF7 = test system: MCF7
MDA-MB-231 = test system: MDA-MB-231
MDA-MB-435 = test system: MDA-MB-435
MDA-N = test system: MDA-N
MOLT-4 = test system: MOLT-4
Malme-3M = test system: Malme-3M
NCI-H226 = test system: NCI-H226
NCI-H23 = test system: NCI-H23
NCI-H460 = test system: NCI-H460
NCI-H522 = test system: NCI-H522
NCI/ADR-RES = test system: NCI/ADR-RES
OVCAR-3 = test system: OVCAR-3
OVCAR-4 = test system: OVCAR-4
OVCAR-5 = test system: OVCAR-5
OVCAR-8 = test system: OVCAR-8
PC-3 = test system: PC-3
RPMI-8226 = test system: RPMI-8226
RXF 393 = test system: RXF 393
SF-268 = test system: SF-268
SF-295 = test system: SF-295
SF-539 = test system: SF-539
SK-MEL-28 = test system: SK-MEL-28
SK-MEL-2 = test system: SK-MEL-2
SK-MEL-5 = test system: SK-MEL-5
SN12C = test system: SN12C
SNB-19 = test system: SNB-19
SR = test system: SR
SW-620 = test system: SW-620
T47D = test system: T47D
TK-10 = test system: TK-10
U-251 = test system: U-251
UACC-257 = test system: UACC-257
UACC-62 = test system: UACC-62
UO-31 = test system: UO-31

Cc1cc(=O)oc2cc(OC(=O)N(C)C)c(Cl)cc12
GI50 (786-0): 87.5 µM (inactive) | GI50 (A498): > 100 µM (inactive) | GI50 (A549): > 100 µM (inactive) | GI50 (ACHN): > 100 µM (inactive) | GI50 (BT-549): > 100 µM (inactive) | GI50 (CAKI-1): > 100 µM (inactive) | GI50 (CCRF-CEM): > 100 µM (inactive) | GI50 (COLO 205): 95.9 µM (inactive) | GI50 (DU-145): > 100 µM (inactive) | GI50 (EKVX): > 100 µM (inactive) | GI50 (HCC 2998): > 100 µM (inactive) | GI50 (HCT-116): > 100 µM (inactive) | GI50 (HCT-15): > 100 µM | GI50 (HL-60): 54 µM (inactive) | GI50 (HOP-62): 25.1 µM (inactive) | GI50 (HOP-92): 82 µM (inactive) | GI50 (HT-29): > 100 µM (inactive) | GI50 (Hs-578T): > 100 µM (inactive) | GI50 (IGROV-1): > 100 µM (inactive) | GI50 (K562): > 100 µM (inactive) | GI50 (KM12): > 100 µM (inactive) | GI50 (LOX IMVI): 85.5 µM (inactive) | GI50 (M14): 83.9 µM (inactive) | GI50 (MCF7): > 100 µM (inactive) | GI50 (MDA-MB-231): > 100 µM (inactive) | GI50 (MDA-MB-435): 65 µM (inactive) | GI50 (MDA-N): > 100 µM (inactive) | GI50 (MOLT-4): > 100 µM (inactive) | GI50 (Malme-3M): 84.3 µM (inactive) | GI50 (NCI-H226): 29.3 µM (inactive) | GI50 (NCI-H23): > 100 µM (inactive) | GI50 (NCI-H460): > 100 µM (inactive) | GI50 (NCI-H522): 57.7 µM (inactive) | GI50 (NCI/ADR-RES): > 100 µM (inactive) | GI50 (OVCAR-3): > 100 µM (inactive) | GI50 (OVCAR-4): > 100 µM (inactive) | GI50 (OVCAR-5): > 100 µM (inactive) | GI50 (OVCAR-8): > 100 µM (inactive) | GI50 (PC-3): > 100 µM (inactive) | GI50 (RPMI-8226): > 100 µM (inactive) | GI50 (RXF 393): 2 µM (inactive) | GI50 (SF-268): 86.5 µM (inactive) | GI50 (SF-295): > 10 µM (inactive) | GI50 (SF-539): 55.3 µM (inactive) | GI50 (SK-MEL-28): > 100 µM (inactive) | GI50 (SK-MEL-2): 82.6 µM (inactive) | GI50 (SK-MEL-5): 76 µM (inactive) | GI50 (SN12C): > 100 µM (inactive) | GI50 (SNB-19): 71.4 µM (inactive) | GI50 (SR): > 100 µM (inactive) | GI50 (SW-620): > 100 µM (inactive) | GI50 (T47D): 85.9 µM (inactive) | GI50 (TK-10): > 100 µM (inactive) | GI50 (U-251): 53 µM (inactive) | GI50 (UACC-257): 80.5 µM (inactive) | GI50 (UACC-62): 21.6 µM (inactive) | GI50 (UO-31): > 100 µM (inactive)
